Measured values: patent US8304238B2, “Cell culture medium and immobilized preparation of cell adhesion protein or peptide” (Nat'l Institute for Environmental Studies, priority 2003, dated 2012)
Entries after “also recorded” stand apart in the source; their conditions may differ. Where no end group is shown, it is not given here.

How the values were obtained:
[1] = test system: alveolar type II epithelial cells (T2 cells); experiment: Binding strength (affinity) of immobilized LN peptides to T2 cells relative to immobilized FIB-1 (mixed immobilization, free FIB-1 competition); assay type: cell-based; parameters: key to Binding strength to T2 cells, Comprehensive evaluation: AA: extremely strongly binding/adhering; A: strongly binding/adhering; B: intermediately binding/adhering (as the same degree as FIB-1 peptide); C: more weakly binding/adhering than FIB-1 peptide; conditions: for Binding strength to T2 cells, Comprehensive evaluation: classification relative to FIB-1 peptide; for Binding strength to T2 cells, Ratio to FIB-1: inverse of mixing ratio at transitional midpoint, MMAC-coated well; for Binding strength to T2 cells, Ratio to FIB-1 / Mixing ratio at the transitional midpoint: FIB-1 0.25 mg/ml; for Mixing ratio at the transitional midpoint: peptide:FIB-1 co-immobilized, loss of inhibition by free FIB-1
Experimental: Therefore, the amount of FIB-1 peptide was set at 0.25 mg/ml, and AG73 peptide was mixed therewith, while changing its concentration ratio, from 1/1.250 of FIB-1 in an amount which is 0.20 μg/ml, to ½ of FIB-1 in an amount which is 0.125 mg/ml, and the mixture was immobilized on a well wherein a hydrophobic binding-adsorptive polymer MMAC was coated. The amount of cell adhesion in the case where T2 cells were cultured under a serum-free condition for 1 day on the immobilized peptides is shown in FIG. 9, in comparison with the case where the culture was conducted on the immobilized FIB-1, which was set at 100%.
However, in a case that the ratio of FIB-1:AG73 increased to 1:0.02, because T2 cells already transited to be adherent through the immobilized AG73 peptide, free FIB-1 peptide could no longer inhibit the cell adhesion. […] Likewise, with regard to A3G72 and A4G82 peptides, because the mixing ratio at the transitional midpoint=0.1, their binding strength to T2 cells is 10 times as much as that of FIB-1.
The method used in FIGS. 8 and 9 is extremely effective as a convenient method by which a relative order can be measured concerning to the binding strength (affinity) of cell adhesion peptides and the strength of cell adhesion can be considered quantitatively.
In Table 1, the classification is shown based on the results of the affinity (bonding/adhesion strength) between FIB-1 peptide containing RGD amino acid sequence of FN molecule, a binding site to integrin, and T2 cells: laminin α-chain G-domain peptides are classified into class AA, extremely strong binding/adhesion; class A, strong adhesion; class B, adhesion as the same degree as FIB-1; and class C, binding weaker than the described above.

[2] = test system: alveolar type II epithelial cells (T2 cells); experiment: Inhibition by free cell adhesion peptides of T2 cell adhesion to coated cell adhesion proteins FN, Col I, LN, VN; assay type: cell-based; conditions: for Inhibition of adhesion of T2 cells to FN, Col I, LN and VN by free peptide: free peptide 0.25 mg/ml, serum-free, 1 day
Experimental: Commercially available FN, LN and VN, usually used as cell adhesion proteins at cell culture, were coated to wells at the concentrations of 5 μg/ml, 10 μg/ml and 10 μg/ml, respectively. In case of Col I (collagen type I), Col I at the concentration of 100 μg/ml, dissolved in 1 mM HCl, was poured into a well, left stand still for a while, and then the solution was removed and air-drying was conducted, and rinsed with the medium, before use. Next, 6×10^5 cells/ml of alveolar type II epithelial cells (T2 cells) suspended in the serum-free DMEM medium was seeded by 100 μl each on a 96-well to which the extracellular matrix was coated, and cultured in a CO2 incubator at 37° C. for 1 day. After the culture was finished, the cells were fixed with 100 μl of methanol for 5 minutes, and stained for 30 minutes with 50 μl of 0.4% crystal violet. Excessive staining was washed with water, then the number of cells adhered to FN, Col I, LN and VN, which had been coated to the wells, was counted based on the absorbance of cytoplasm (A595).
On the other hand, among amino acid sequences of various LN molecules, the sequences that induce cell adhesion are known to be present. […] Then, the number of cells was counted in accordance with the method described above.

[3] = test system: alveolar type II epithelial cells (T2 cells); experiment: Inhibition of T2 cell adhesion by free peptide different from the immobilized peptide substrate; assay type: cell-based; conditions: for Inhibition by free peptide of T2 cell adhesion to immobilized AG73: AG73 (etc.) immobilized; for Inhibition by free peptide of T2 cell adhesion to immobilized FIB-1: FIB-1 immobilized
Experimental: Results obtained by adding the free peptides different from the immobilized peptides when T2 cells were cultured on the immobilized peptide prepared according to the method in Example 7, were shown in FIG. 8.
When adding the free peptides that were the same as the immobilized peptides in the culture medium, the both (free and immobilized) peptides compete for syndecan of T2 cells and as a result, the cell adhesion is inhibited (see Example 7). So far, four types of syndecans are genetically known. Whether these syndecans are commonly owned or accommodated by each peptide, overlapping only by some degrees, otherwise mutually exclusive, was examined herein.

[4] = test system: alveolar type II epithelial cells (T2 cells); experiment: Time course of cell adhesion/spreading of T2 cells on immobilized cell adhesion peptide substrates; assay type: cell-based
Experimental: Culture was conducted by using the cell adhesion peptides immobilized on a well and T2 cells, for 1-24 hours according to the method in Example 8.
As cell adhesion peptides, AG73 was used in B, E and M, FIB-1 was used in C, L and O, A3G72 was used in F, A4G82 was used in G and N, A5G71 was used in H, A5G77 was used in I, hA3G75 was used in J, and hA3G83 was used in K; FN was used as a standard substance in A and D.

[5] = test system: alveolar type II epithelial cells (T2 cells); experiment: Static and forced stretching culture of T2 cells on MMAC-coated silicone wells with immobilized proteins or peptides; assay type: cell-based; conditions: for Reorientation of T2 cells under forced stretching: 1 day static, 1 day stretching (1dC-1dS), 25 percent, 15 times per minute; for Change of type II epithelial cells into a shape like type I epithelial cells: 3 days static, 3 days stretching (3dC-3dS)
Experimental: A silicone well coated with MMAC was obtained by pouring 0.5 ml of ethanol solution of 50 μg/ml of MMAC (ISP, International Specialty Products, USA) into a silicone well with a groove of 20 mm×20 mm×10 mm, absorbing excess solution, and conducting air-drying.
Into the silicone wells coated by the method described in Example 1, 10 μg/ml of cell adhesion protein solution of fibronectin (FN), laminin-1 (LN), dissolved in 0.1 M triethanolamine buffer solution of pH 8.8, or 0.25 mg/ml of cell adhesion peptide solution of FIB-1, AG73 was poured respectively, and the reaction was conducted for at least several hours at 37° C. to bind and immobilize these proteins or peptides having cell adhesion activity (see Example 6 described later for particulars of immobilization). Subsequently, alveolar type II epithelial cell (T2 cells) suspension was poured, 5×10^4/cm^2 per unit area, and the culture was started in a CO2 culture apparatus.
T2 cells, 2×10^5/cm^2 per unit area, were seeded on the silicone well wherein the cell adhesion proteins or peptides were immobilized, which had been prepared in an almost same manner as that of Example 2, and static culture was conducted for 1 day. After confirming that the seeded cells confluently spread all over the culture face, horizontal cell stretching was forcibly started at the stretching degree of twenty five percents and at the frequency of 15 times per minute, by using cell culture stretching apparatus (Scholar Tec), and the culture was continued one more day. After the culture was finished, photographs of cell adhesion state were taken with a phase contrast microscope (FIG. 2, top 4 rows).
T2 cells, 5×10^4/cm^2 per unit area, were seeded on the silicone well wherein the cell adhesion proteins or peptides were immobilized, which had been prepared in an almost same manner as that of Example 2, and static culture was conducted for 3 days. T2 cells grew in a manner similar to that shown in FIG. 1, 3d (results are not shown because they are overlapping). Then, the cells were subjected to the same stimuli of forced stretching as in Example 1, and the culture was continued one more day. After the culture was finished, photographs of cell adhesion state were taken with a phase contrast microscope (FIG. 2, middle 4 rows) (FN, 3dC-1dS, LN, 3dC-1dS, FIB-1, 3dC-1dS, and AG-73, 3dC-1dS).
Forced stretching culture was conducted for 3 days in an almost same manner as stretching culture of Example 4. After the culture was finished, photographs of cell adhesion state were taken with a phase contrast microscope (FIG. 2, bottom 4 rows) (FN, 3dC-3dS, LN, 3dC-3dS, FIB-1, 3dC-3dS, and AG-73, 3dC-3dS).

[6] = molecular target: syndecan present on the cell surface of T2 cells (alveolar type II epithelial cells); experiment: T2 cell adhesion to immobilized peptides, competitive inhibition by free peptides (FIGS. 8 and 9)
[7] = molecular target: syndecan present on the cell surface of T2 cells (alveolar type II epithelial cells); experiment: T2 cell adhesion to FIB-1 and the peptide co-immobilized on MMAC-coated wells, inhibition by free FIB-1 (FIG. 9)

Molecule: RKRLQVQLSIRT
- Binding strength to T2 cells, Comprehensive evaluation [1]: AA
- Binding strength to T2 cells, Ratio to FIB-1 [1]: 100
- Mixing ratio at the transitional midpoint [1]: 0.01
- Inhibition of adhesion of T2 cells to cell adhesion proteins by free peptide ([2]; free peptide 0.12 mg/ml): exhibited the inhibitory activity
- Inhibition of adhesion of T2 cells to FN, Col I, LN and VN by free peptide [2]: inhibited adhesion of T2 cells
- Inhibition by free peptide of T2 cell adhesion to immobilized AG73 [3]: inhibited the cell adhesion
- Inhibition by free peptide of T2 cell adhesion to immobilized FIB-1 [3]: inhibited; also recorded: could inhibit
- Cell adhesion/spreading on immobilized peptide ([4]; 6-hour culture): the cells were spreading
- Cell adhesion/spreading on immobilized peptide ([4]; 24-hour culture): almost all cells had finished spreading
- Reorientation of T2 cells under forced stretching [5]: spread in an elongated shape to a direction perpendicular to the direction of forced stretching
- Change of type II epithelial cells into a shape like type I epithelial cells [5]: changed into a shape like flat type I epithelial cells

Molecule: TLFLAHGRLVFM
- Binding strength to T2 cells, Comprehensive evaluation [1]: A
- Binding strength to T2 cells, Ratio to FIB-1 [1]: 10
- Mixing ratio at the transitional midpoint [1]: 0.1
- Inhibition of adhesion of T2 cells to FN, Col I, LN and VN by free peptide [2]: inhibited adhesion of T2 cells
- Inhibition by free peptide of T2 cell adhesion to immobilized AG73 [3]: inhibited the cell adhesion
- Inhibition by free peptide of T2 cell adhesion to immobilized FIB-1 [3]: could inhibit
- Cell adhesion/spreading on immobilized peptide ([4]; 6-hour culture): the cells were spreading
- Cell adhesion/spreading on immobilized peptide ([4]; 24-hour culture): almost all cells had finished spreading

Molecule: fibronectin [FN]
- Reorientation of T2 cells under forced stretching [5]: not very obvious
- Change of type II epithelial cells into a shape like type I epithelial cells [5]: less observed

Molecule: laminin-1 [LN]
- Reorientation of T2 cells under forced stretching [5]: not very obvious
- Change of type II epithelial cells into a shape like type I epithelial cells [5]: changed into a shape like flat type I epithelial cells

Molecule: KNSFMALYLSKG
- Binding strength to T2 cells, Comprehensive evaluation [1]: B
- Binding strength to T2 cells, Ratio to FIB-1 [1]: 2
- Mixing ratio at the transitional midpoint [1]: about 1
- Inhibition of adhesion of T2 cells to FN, Col I, LN and VN by free peptide [2]: inhibited adhesion of T2 cells
- Inhibition by free peptide of T2 cell adhesion to immobilized AG73 [3]: inhibited the cell adhesion
- Inhibition by free peptide of T2 cell adhesion to immobilized FIB-1 [3]: could inhibit
- Cell adhesion/spreading on immobilized peptide ([4]; 6-hour culture): delay in spreading but sufficient cell adhesion

Molecule: GNSTISIRAPVY
- Binding strength to T2 cells, Comprehensive evaluation [1]: B
- Binding strength to T2 cells, Ratio to FIB-1 [1]: 1-2
- Mixing ratio at the transitional midpoint [1]: about 1
- Inhibition of adhesion of T2 cells to FN, Col I, LN and VN by free peptide [2]: inhibited adhesion of T2 cells
- Inhibition by free peptide of T2 cell adhesion to immobilized AG73 [3]: inhibited the cell adhesion
- Inhibition by free peptide of T2 cell adhesion to immobilized FIB-1 [3]: could inhibit
- Cell adhesion/spreading on immobilized peptide ([4]; 6-hour culture): delay in spreading but sufficient cell adhesion

Molecule: KPRLQFSLDIQT
- Binding strength to T2 cells, Comprehensive evaluation [1]: A
- Binding strength to T2 cells, Ratio to FIB-1 [1]: 10
- Mixing ratio at the transitional midpoint [1]: 0.1
- Inhibition of adhesion of T2 cells to FN, Col I, LN and VN by free peptide [2]: inhibited adhesion of T2 cells
- Inhibition by free peptide of T2 cell adhesion to immobilized AG73 [3]: inhibited the cell adhesion
- Cell adhesion/spreading on immobilized peptide ([4]; 6-hour culture): the cells were spreading

Molecule: TLFLAHGRLVFM [A4G82 (Thr-Leu-Phe-Leu-Ala-His-Gly-Arg-Leu-Val-Phe-Met)]
- Binding strength to T2 cells, Ratio to FIB-1 (fold (ratio to FIB-1)) [6]: 10
- mixing ratio at the transitional midpoint (peptide to FIB-1) [7]: 0.1

Molecule: KPRLQFSLDIQT [A3G72 (Lys-Pro-Arg-Leu-Gln-Phe-Ser-Leu-Asp-Ile-Gln-Thr)]
- Binding strength to T2 cells, Ratio to FIB-1 (fold (ratio to FIB-1)) [6]: 10
- mixing ratio at the transitional midpoint (peptide to FIB-1) [7]: 0.1

Molecule: VKTEYIKRKAFM [AG81.2 (Val-Lys-Thr-Glu-Tyr-Ile-Lys-Arg-Lys-Ala-Phe-Met)]
- Binding strength to T2 cells, Ratio to FIB-1 (fold (ratio to FIB-1)) [6]: < 1

Molecule: LVLFLNHGHFVA [A5G77 (Leu-Val-Leu-Phe-Leu-Asn-His-Gly-His-Phe-Val-Ala)]
- mixing ratio at the transitional midpoint (peptide to FIB-1) [7]: 1

Molecule: KNSFMALYLSKG [hA3G75 (Lys-Asn-Ser-Phe-Met-Ala-Leu-Tyr-Leu-Ser-Lys-Gly)]
- Binding strength to T2 cells, Ratio to FIB-1 (fold (ratio to FIB-1)) [6]: 2
- mixing ratio at the transitional midpoint (peptide to FIB-1) [7]: 1

Molecule: GNSTISIRAPVY [hA3G83 (Gly-Asn-Ser-Thr-Ile-Ser-Ile-Arg-Ala-Pro-Val-Tyr)]
- mixing ratio at the transitional midpoint (peptide to FIB-1) [7]: 1
